Experiments:
isolated rat heart [1] = test: Isolated heart perfusion (Langendorff), 30 min ischemia / 30 min reperfusion, hemodynamic recovery; conditions: FTS 1 μM in perfusate
Method: FTS was provided by Concordia Pharmaceuticals, Inc. (Ft. Lauderdale, Fla.). […] The powder was dissolved in DMSO and diluted with Krebs-Henseleit bicarbonate buffer solution (KHB) to yield a 1 μM drug solution containing 10% DMSO. Rats were heparinized (500 U/kg) and anesthetized (i.p.) with ether. The hearts were quickly removed, the aorta was cannulated and the heart perfused in retrograde according to Langendorff at a pressure of 96 cmH2O with oxygenated Krebs-Henseleit bicarbonate buffer solution (KHB) containing (mM): 118 NaCl, 2.4 KCl, 1.2 MgSO4, 7×H2O, 2.5 CaCl2, 5 EDTA, 1.2 KH2PO4, 25 NaHCO3, 4 glucose at 37° C. [[…], Offen D, Maulik N, Otani H, Barhum Y, et al., Am J Physiol Heart Circ Physiol 284:H2351-59 (2003)]. The isolated heart was stabilized for 20 minutes at a constant perfusion pressure and then subjected to 30 minutes of ischemia followed by 30 minutes of reperfusion. Ischemia was created by clamping the aortic cannula. During reperfusion, hearts were given KHB (buffer) with FTS or KHB only. The temperature of the heart (measured in the right ventricle) was maintained at 37°±0.2° C. throughout the experiment by a micro-thermocouple connected to a digital thermometer (Webster Laboratories […], Calif.). In all stages of the protocol, the left ventricular developed pressure (LVP), the rate of pressure development and relaxation (±dP/dt) and the heart rate (HR), were continuously recorded by the CODAS data acquisition system (San Diego, Calif.). Rate pressure product (RPP), an index of myocardial workload, was calculated by multiplying LVP by HR. Coronary effluent was collected at one-minute intervals before and after ischemia, at various time points (1, 10 and 30 minutes reperfusion) and analyzed for CK activity (Boehringer Mannheim). Results are expressed as means±standard error of the mean (SE). Values during stabilization period were defined as 100%. A statistical difference between the groups was assessed by analysis of variance (ANOVA) with repeated measurements using the multiple comparison option of Duncan. If differences were established, values were compared using Student's t-test: p<0.05 was considered significant. To determine the protective effects of Ras protein inhibition on cardiac damage derived from I/R injury ex vivo, we first determined the baseline absolute values of the rats and cardiac function prior to ischemia in FTS (1 μM) and control groups. […] Values are expressed as mean±SE. Next, we perfused the isolated rat hearts with FTS (1 μM) in the Langendorff system after 30 minutes of ischemia (FIG. 1). FTS had no effect on the CF recovery in the FTS vs. control group (FIG. 1A) during the 30 minutes of reperfusion.

isolated rat heart [2] = test: Enzymatic leakage of CK and LDH into the coronary effluent of isolated perfused hearts; conditions: FTS 1 μM, at 1 minute and 30 minutes of reperfusion
Method: (§1) Rats were heparinized (500 U/kg) and anesthetized (i.p.) with ether. The hearts were quickly removed, the aorta was cannulated and the heart perfused in retrograde according to Langendorff at a pressure of 96 cmH2O with oxygenated Krebs-Henseleit bicarbonate buffer solution (KHB) containing (mM): 118 NaCl, 2.4 KCl, 1.2 MgSO4, 7×H2O, 2.5 CaCl2, 5 EDTA, 1.2 KH2PO4, 25 NaHCO3, 4 glucose at 37° C. [[…], Offen D, Maulik N, Otani H, Barhum Y, et al., Am J Physiol Heart Circ Physiol 284:H2351-59 (2003)]. The isolated heart was stabilized for 20 minutes at a constant perfusion pressure and then subjected to 30 minutes of ischemia followed by 30 minutes of reperfusion. Ischemia was created by clamping the aortic cannula. During reperfusion, hearts were given KHB (buffer) with FTS or KHB only. The temperature of the heart (measured in the right ventricle) was maintained at 37°±0.2° C. throughout the experiment by a micro-thermocouple connected to a digital thermometer (Webster Laboratories […], Calif.). In all stages of the protocol, the left ventricular developed pressure (LVP), the rate of pressure development and relaxation (±dP/dt) and the heart rate (HR), were continuously recorded by the CODAS data acquisition system (San Diego, Calif.). Rate pressure product (RPP), an index of myocardial workload, was calculated by multiplying LVP by HR. […]

isolated rat heart [3] = test: Measurement of irreversible ischemic injury by TTC staining of isolated perfused hearts; conditions: FTS 1 μM perfusion, 30 minutes ischemia and 30 minutes of reperfusion; control 23.7±4%, p<0.05; mean±SE
Method: as §1

[4] = tested on: Ras and its downstream effectors; test: Western immunoblotting / Ras-GTP pull-down of homogenates of isolated perfused hearts (ex vivo); parameters: species or system rat; conditions: FTS 1 μM, 30 minutes of reperfusion
Method: Hearts were obtained from FTS- and PBS-treated rats (LAD ligation experiments) and from isolated heart perfusion experiments. The hearts were homogenized in cold homogenization buffer containing protease inhibitors. Protein concentration was determined by the Bradford assay and samples containing 100 μg protein were used for determination of protein levels by Western immunoblotting using: pan-anti-Ras Ab (Ab03; Santa Cruz, Calif.), anti JNK Ab (Cell Signaling; Danvers, Mass.), anti p-JNK Ab (Cell Signaling), anti P38 Ab (Cell Signaling), anti p-P38 Ab (Cell Signaling), anti Mst1 Ab (Cell Signaling), and anti p-Mst1 Ab (Cell Signaling). Enhanced chemiluminescence (ECL) and densitometric analysis were performed as detailed previously [[…], Weisz […], Paz A, Marciano D, Egozi Y, et al., Biochemistry 37(5):1306-14 (1998)1. The hearts were prepared as described above. Samples containing 0.5 mg protein used for determination of levels of active GTP-bound Ras by the glutathione S-transferase-RBD pull-down assay followed by Western immunoblotting with pan-anti-Ras Ab as detailed previously [Jansen […], Mayer […], et al., Proc Natl Acad Sci U.S.A. 96(24):14019-24 (1999)]. To examine the effect of FTS on Ras signaling on its prominent downstream effectors, Western immunoblotting using homogenates of the isolated perfused hearts was performed. Quantitative analysis of the immunoblots disclosed a reduction in levels of active Ras (Ras-GTP) and p-Jnk in hearts of the FTS group (p<0.05) at 30 minutes of reperfusion.

[5] = tested on: Ras and its downstream effectors; test: Western immunoblotting / Ras-GTP pull-down of hearts from LAD ligation rats (in vivo); parameters: species or system rat; conditions: Protocol A, 5 mg/kg
[6] = human, in vivo; cited from earlier work
Male Lewis rats [7] = test: LAD artery ligation I/R model, echocardiography at day 14; conditions: 5 mg/kg i.p.
Method: (§2) At the age of 12 weeks, rats were anesthetized (mixture of 8 mg/100 g ketamine, 5 mg/100 g xylazine), intubated, and ventilated with a Harvard Rodent Ventilator Model 383 (respiratory rate: 50/min, respiratory volume: 2.5 mL). A rectal thermocouple was used to continuously monitor body temperature, which was maintained at 37° C. using a heating pad. A left thoracotomy in the third intercostal space was performed to expose the heart. The location of the left descending coronary artery was identified and then occluded with a 6-0 silk suture. Occlusion was confirmed by monitoring the pallor of the region at risk, and an electrocardiogram was used to observe changes such as widening of QRS and ST-T segment elevation. After 30 minutes, the occlusion was removed, the thorax was closed, and rats were returned to their cages at the local vivarium.
FTS was stored in chloroform, which was evaporated under a stream of nitrogen immediately before use. The powder was dissolved in absolute ethanol and diluted to the desired concentration in sterile PBS made basic with NaOH. Carrier solution (1000 μl) containing 1.35 mg of FTS (5 mg/kg) was injected intraperitoneally (i.p.) into each rat. Control solution was prepared at the same time starting with PBS and absolute ethanol.
LAD ligation was performed in two groups of rats. Group 1 received 5 mg/kg FTS and group 2 received PBS according to two protocols: (A) FTS or PBS was administered 7 days on a daily basis before LAD ligation, locally during occlusion opening (0.5 μM/100 μl), and continued for 14 days, every other day [prophylactic regimen] (B) FTS or PBS was administered 14 days after LAD ligation every other day [treatment regimen].
To examine the effect of systemic FTS treatment on the heart, in vivo experiments were conducted according two protocols.

Male Lewis rats [8] = test: LAD artery ligation I/R model, histopathology (H&E and Masson Trichrome), area of irreversible damage; conditions: 5 mg/kg i.p.
Method: as §2
FTS was stored in chloroform, which was evaporated under a stream of nitrogen immediately before use. The powder was dissolved in absolute ethanol and diluted to the desired concentration in sterile PBS made basic with NaOH. […]
Hearts were removed and fixed in 4% formalin, then embedded in paraffin. […] Slides were then assessed in a blinded fashion by a pathologist using light microscopy and scored for the percentage of LVP involvement and collagen deposition. Scar area was evaluated using data from both H&E and Masson staining. […]

[9] = reperfusion after 30 minutes of ischemia, p<0.05
[10] = Protocol A (prophylactic regimen), p<0.05

CC(C)=CCC/C(C)=C/CC/C(C)=C/CSc1ccccc1C(=O)O [FTS, S-farnesylthiosalicylic acid]
CF (coronary flow) recovery vs. control (isolated rat heart [1]; 30 minutes of reperfusion after 30 minutes of ischemia): no effect | recovery of HR vs. control (isolated rat heart [1]; reperfusion after 30 minutes of ischemia): no significant difference | LVP recovery vs. control (isolated rat heart [1]; [9]): significantly better | ±dP/dt recovery vs. control (isolated rat heart [1]; [9]): significantly better | CK release to the coronary effluent vs. control (isolated rat heart [2]): lower in the FTS group compared with control group, but did not reach statistical significance | LDH release to the coronary effluent vs. control (isolated rat heart [2]): lower in the FTS group compared with control group, but did not reach statistical significance | regions of irreversible ischemic injury (TTC-negative area, percentage of the entire area of the section) (isolated rat heart [3]): 12.7±2% | Jnk levels vs. control [4]: No differences | Mst1 levels vs. control [4]: No differences | P38 levels vs. control [4]: No differences | p-Mst1 levels vs. control [4]: No differences | p-P38 levels vs. control [4]: No differences | total Ras levels vs. control [4]: No differences | levels of active Ras (Ras-GTP) vs. control ([4]; p<0.05): reduction | levels of p-Jnk vs. control ([4]; p<0.05): reduction | levels of Jnk vs. control [5]: did not differ | levels of Mst vs. control [5]: did not differ | levels of P38 vs. control [5]: did not differ | levels of p-Jnk vs. control [5]: did not differ | levels of p-P38 vs. control [5]: did not differ | levels of active Ras (Ras-GTP) vs. control ([5]; p<0.05): reduction | levels of p-Mst1 vs. control ([5]; p<0.05): reduction | levels of total Ras vs. control ([5]; p<0.05): reduction | tolerability / dose-limiting toxicities [6]: well-tolerated compound without dose-limiting toxicities | hemodynamic parameters of cardiac function vs. control I/R (Male Lewis rats [7]; Protocol A (prophylactic regimen)): significant improvement in most hemodynamic parameters | left ventricular end-diastolic area (LVEDA) vs. control I/R (Male Lewis rats [7]; [10]): significantly better | left ventricular end-systolic area (LVESA) vs. control I/R (Male Lewis rats [7]; [10]): significantly better | septum diameter (Male Lewis rats [7]; Protocol A (prophylactic regimen), control I/R 0.1±0.01, p<0.05, mean±SE): 0.14±0.01 cm | fractional shortening of area (Male Lewis rats [7]; Protocol A (prophylactic regimen), control I/R 38±4%, p<0.05, mean±SE): 55±6% | cardiac hemodynamic function vs. control I/R (Male Lewis rats [7]; Protocol B (treatment regimen, 14 days post-LAD ligation)): no improvement | area of irreversible damage (percentage of LV wall) (Male Lewis rats [8]; Protocol A (prophylactic regimen), control I/R 36±7%, mean±SE): 17.25±2.5% | area of irreversible damage vs. control I/R (Male Lewis rats [8]; Protocol B (treatment regimen)): did not show a significant difference

From patent US20110130369A1, “USE OF FTS FOR THE TREATMENT OF MYOCARDIAL ISCHEMIA/REPERFUSION INJURY” (RAMOT AT TEL-AVIV UNIVERSITY LTD., priority 2008, published 2011)
